Measurements from patent US12692235B2, “Fused ring compound and application thereof” (WUHAN LL SCIENCE AND TECHNOLOGY DEVELOPMENT CO., LTD., priority 2019, dated 2026).

Biological target: T1, hP2X4 (human purinergic P2X receptor subtype 4) (Homo sapiens, UniProt Q99571)
T1 sequence (Q99571 1-404 isoform Q99571-2): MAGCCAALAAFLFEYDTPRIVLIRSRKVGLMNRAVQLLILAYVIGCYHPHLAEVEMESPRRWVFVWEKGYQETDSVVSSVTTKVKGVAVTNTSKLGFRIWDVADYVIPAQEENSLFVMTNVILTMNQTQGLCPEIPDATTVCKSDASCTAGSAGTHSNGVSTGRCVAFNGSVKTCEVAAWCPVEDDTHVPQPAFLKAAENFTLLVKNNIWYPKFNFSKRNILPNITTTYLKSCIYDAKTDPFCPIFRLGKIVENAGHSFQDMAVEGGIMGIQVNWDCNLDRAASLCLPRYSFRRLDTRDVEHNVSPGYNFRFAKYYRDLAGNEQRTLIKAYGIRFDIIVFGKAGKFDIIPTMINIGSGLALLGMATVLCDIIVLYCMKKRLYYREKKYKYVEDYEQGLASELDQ
Details: P2X4 IC50 (nM), HEK293 cells stably expressing hP2X4; agonist BZ-ATP 2.5 μM; FLIPR calcium
Description: Cells at 400,000 cells/mL were seeded into a 384-well plate (10,000 cells/well) 18-24 h prior to the FLIPR experiment and then incubated overnight in a cell incubator. […] Each well was added with 20 μL of 0.5×Calcium 6 fluorescent dye (Molecular Devices, R8190) and then the cells were subjected to dye-loading incubation at 37° C. for 1.5 h. Each well was added with 10 μL of respective test compound (dissolved in DMSO at a concentration of 10 mM and serially diluted with buffer) or vehicle and the mixture was equilibrated for 30 min at room temperature.

SMILES | IC50 [nM]
NS(=O)(=O)c1cc(NC(=O)Cc2ccccc2Cl)cc2cnc(N3CCOCC3)cc12 [Compound 78, 2-(2-chlorophenyl)-N-(3-morpholino-5-sulfamoylisoquinolin-7-yl)acetamide] | 50 to 200
NS(=O)(=O)c1cc(NC(=O)Cc2ccccc2Cl)cc2cnc(C3CC3)cc12 [Compound 21, 2-(2-chlorophenyl)-N-(3-cyclopropyl-5-sulfamoylisoquinolin-7-yl)acetamide] | < 10
COc1ccc(F)cc1CC(=O)Nc1cc(S(N)(=O)=O)c2ccnc(OC)c2c1 [Compound 95, 2-(5-fluoro-2-methoxyphenyl)-N-(1-methoxy-5-sulfamoylisoquinolin-7-yl)acetamide] | 200 to 5000
COc1nccc2c(S(N)(=O)=O)cc(NC(=O)Cc3ccc(F)cc3Cl)cc12 [Compound 94, 2-(2-chloro-4-fluorophenyl)-N-(1-methoxy-5-sulfamoylisoquinolin-7-yl)acetamide] | 50 to 200
COc1ccc(Oc2cc3c(S(N)(=O)=O)cc(NC(=O)Cc4ccccc4Cl)cc3cn2)cc1 [Compound 82, 2-(2-chlorophenyl)-N-(3-(4-methoxyphenoxy)-5-sulfamoylisoquinolin-7-yl)acetamide] | 200 to 5000
CC(C)c1nccc2c(S(N)(=O)=O)cc(NC(=O)Cc3ccccc3Cl)cc12 [Compound 24, 2-(2-chlorophenyl)-N-(1-isopropyl-5-sulfamoylisoquinolin-7-yl)acetamide] | < 10
NS(=O)(=O)c1cc(NC(=O)Cc2ccccc2Cl)cc2c1CCN(C(=O)OC1CC1)C2 [Compound 101, cyclopropyl-7-(2-(2-chlorophenyl)acetamido)-5-sulfamoyl-3,4-dihydroisoquinoline-2(1H)-carboxylate] | 10 to 50
CC#Cc1ccc2c(S(N)(=O)=O)cc(NC(=O)Cc3ccccc3Cl)cc2n1 [Compound 87, 2-(2-chlorophenyl)-N-(2-(prop-1-yn-1-yl)-5-sulfamoylquinolin-7-yl)acetamide] | 10 to 50
NS(=O)(=O)c1cc(NC(=O)Cc2ccccc2Cl)cc2cc(Cl)ncc12 [Compound 59, N-(3-chloro-8-sulfamoylisoquinolin-6-yl)-2-(2-chlorophenyl)acetamide] | 50 to 200
NS(=O)(=O)c1cc(NC(=O)Cc2ccccc2Cl)cc2c1CCN(c1ccc(Cl)cn1)C2 [Compound 116, 2-(2-chlorophenyl)-N-(2-(5-chloropyridin-2-yl)-5-sulfamoyl-1,2,3,4-tetrahydroisoquinolin-7-yl)acetamide] | 50 to 200
CN1CCN(c2ccc3c(S(N)(=O)=O)cc(NC(=O)Cc4ccccc4Cl)cc3n2)CC1=O [Compound 70, 2-(2-chlorophenyl)-N-(2-(4-methyl-3-carbonylpiperazin-1-yl)-5-sulfamoylquinolin-7-yl)acetamide] | 50 to 200
N#Cc1nccc2c(S(N)(=O)=O)cc(NC(=O)Cc3ccccc3Cl)cc12 [Compound 90] | 50 to 200
NS(=O)(=O)c1cc(NC(=O)Cc2ccccc2Cl)cc2c1CCN(Cc1ccccc1)C2 [Compound 110, N-(2-benzyl-5-sulfamoyl-1,2,3,4-tetrahydroisoquinolin-7-yl)-2-(2-chlorophenyl)acetamide] | 200 to 5000
COc1ccc2c(S(N)(=O)=O)cc(NC(=O)Cc3ccccc3Cl)cc2n1 [Compound 58, 2-(2-chlorophenyl)-N-(2-methoxy-5-sulfamoylquinolin-7-yl)acetamide] | 50 to 200
NS(=O)(=O)c1cc(NC(=O)Cc2ccccc2Cl)cc2c1CCN(C(=O)c1ccccc1)C2 [Compound 106, N-(2-benzoyl-5-sulfamoyl-1,2,3,4-tetrahydroisoquinolin-7-yl)-2-(2-chlorophenyl)acetamide] | 10 to 50
NS(=O)(=O)c1cc(NC(=O)Cc2ccccc2Cl)cc2ncccc12 [Compound 4, 2-(2-chlorophenyl)-N-(5-sulfamoylquinolin-7-yl)acetamide] | 10 to 50
NS(=O)(=O)c1cc(NC(=O)Cc2ccccc2Cl)cc2c(Cl)cncc12 [Compound 48, N-(4-chloro-8-sulfamoylisoquinolin-6-yl)-2-(2-chlorophenyl)acetamide] | 200 to 5000
NS(=O)(=O)c1cc(NC(=O)Cc2ccccc2Cl)cc2c1CCN(C1COC1)C2 [Compound 123, 2-(2-chlorophenyl)-N-(2-(oxetan-3-yl)-5-sulfamoyl-1,2,3,4-tetrahydroisoquinolin-7-yl)acetamide] | 200 to 5000
NS(=O)(=O)c1cc(NC(=O)Cc2ccccc2Cl)cc2c1CCN(c1ccccc1)C2 [Compound 104, 2-(2-chlorophenyl)-N-(2-phenyl-5-sulfamoyl-1,2,3,4-tetrahydroisoquinolin-7-yl)acetamide] | 50 to 200
COCCOc1ccc2c(S(N)(=O)=O)cc(NC(=O)Cc3ccccc3Cl)cc2n1 [Compound 74, 2-(2-chlorophenyl)-N-(2-(2-methoxyethoxy)-5-sulfamoylquinolin-7-yl)acetamide] | 50 to 200
NS(=O)(=O)c1cc(NC(=O)Cc2ccccc2Cl)cc2c1CCN(c1ccc(F)cc1)C2 [Compound 120, 2-(2-chlorophenyl)-N-(2-(4-fluorophenyl)-5-sulfamoyl-1,2,3,4-tetrahydroisoquinolin-7-yl)acetamide] | 50 to 200

SMILES | IC50 [nM]
NS(=O)(=O)c1cc(NC(=O)Cc2ccccc2Cl)cc2c(=O)[nH]ccc12 [Compound 43, 2-(2-chlorophenyl)-N-(1-oxo-5-sulfamoyl-1,2-dihydroisoquinolin-7-yl)acetamide] | 200 to 5000
COc1ccc(Oc2nccc3c(S(N)(=O)=O)cc(NC(=O)Cc4ccccc4Cl)cc23)cc1 [Compound 35, 2-(2-chlorophenyl)-N-(1-(4-methoxyphenoxy)-5-sulfamoylisoquinolin-7-yl)acetamide] | 10 to 50
NS(=O)(=O)c1cc(NC(=O)Cc2ccccc2Cl)cc2c(OC3CCCC3)nccc12 [Compound 13] | 10 to 50
NS(=O)(=O)c1cc(NC(=O)Cc2ccccc2Cl)cc2c(OC3CCC3)nccc12 [Compound 11, 2-(2-chlorophenyl)-N-(1-cyclobutoxy-5-sulfamoylisoquinolin-7-yl)acetamide] | 10 to 50
NS(=O)(=O)c1cc(NC(=O)Cc2ccccc2Cl)cc2nc(N3CCCC3)ccc12 [Compound 89, (2-chlorophenyl)-N-(2-(pyrrolidin-1-yl)-5-sulfamoylquinolin-7-yl)acetamide] | 200 to 5000
CN1CCN(c2cc3c(S(N)(=O)=O)cc(NC(=O)Cc4ccccc4Cl)cc3cn2)CC1 [Compound 79, 2-(2-chlorophenyl)-N-(3-(4-methylpiperazin-1-yl)-5-sulfamoylisoquinolin-7-yl)acetamide] | 50 to 200
NS(=O)(=O)c1cc(NC(=O)Cc2ccccc2Cl)cc2c(OC3CNC3)nccc12 [Compound 12, N-(1-(azetidin-3-oxy)-5-sulfamoylisoquinolin-7-yl)-2-(2-chlorophenyl)acetamide] | 10 to 50
NS(=O)(=O)c1cc(NC(=O)Cc2ccccc2Cl)cc2c(CF)nccc12 [Compound 56] | 50 to 200
NS(=O)(=O)c1cc(NC(=O)Cc2ccccc2Cl)cc2nc(N3CCOCC3)ccc12 [Compound 68, 2-(2-chlorophenyl)-N-(2-morpholino-5-sulfamoylquinolin-7-yl)acetamide] | 50 to 200
COc1nccc2c(S(N)(=O)=O)cc(NC(=O)Cc3ccc(Cl)cc3Cl)cc12 [Compound 92, 2-(2,4-dichlorophenyl)-N-(1-methoxy-5-sulfamoylisoquinolin-7-yl)acetamide] | 50 to 200
CCOc1nccc2c(S(N)(=O)=O)cc(NC(=O)Cc3ccccc3Cl)cc12 [Compound 8, 2-(2-chlorophenyl)-N-(1-ethoxy-5-sulfamoylisoquinolin-7-yl)acetamide] | 10 to 50
NS(=O)(=O)c1cc(NC(=O)Cc2ccccc2Cl)cc2c(Cl)nccc12 [Compound 2, N-(1-chloro-5-sulfamoylisoquinolin-7-yl)-2-(2-chlorophenyl)acetamide] | 10 to 50
NS(=O)(=O)c1cc(NC(=O)Cc2ccccc2Cl)cc2cncnc12 [Compound 40, 2-(2-chlorophenyl)-N-(8-sulfamoylquinazolin-6-yl)acetamide] | 50 to 200
CC(=O)N1CCc2c(cc(NC(=O)Cc3ccccc3Cl)cc2S(N)(=O)=O)C1 [Compound 102, N-(2-acetyl-5-sulfamoyl-1,2,3,4-tetrahydroisoquinolin-7-yl)-2-(2-chlorophenyl)acetamide] | 10 to 50
NS(=O)(=O)c1cc(NC(=O)Cc2ccccc2Cl)cc2c(OCC3CC3)nccc12 [Compound 16] | 10 to 50
COc1nccc2c(S(N)(=O)=O)cc(NC(=O)Cc3c(F)cccc3Cl)cc12 [Compound 26, 2-(2-chloro-6-fluorophenyl)-N-(1-methoxy-5-sulfamoylisoquinolin-7-yl)acetamide] | < 10
CC(C)Nc1cc2c(S(N)(=O)=O)cc(NC(=O)Cc3ccccc3Cl)cc2cn1 [Compound 83, 2-(2-chlorophenyl)-N-(3-(isopropylamino)-5-sulfamoylisoquinolin-7-yl)acetamide] | 50 to 200
C#Cc1ccc2c(S(N)(=O)=O)cc(NC(=O)Cc3ccccc3Cl)cc2n1 [Compound 86, 2-(2-chlorophenyl)-N-(2-ethynyl-5-sulfamoylquinolin-7-yl)acetamide] | 200 to 5000
NS(=O)(=O)c1cc(NC(=O)Cc2ccccc2Cl)cc2c(C(F)(F)F)nccc12 [Compound 29, 2-(2-chlorophenyl)-N-(-5-sulfamoyl-1-(trifluoromethyl)isoquinolin-7-yl)acetamide] | 10 to 50
NS(=O)(=O)c1cc(NC(=O)Cc2ccccc2Cl)cc2c1CCN(CC1CC1)C2 [Compound 111] | 200 to 5000
NS(=O)(=O)c1cc(NC(=O)Cc2ccccc2Cl)cc2c1CCN(C(=O)C1CC1)C2 [Compound 108] | < 10
